In the NIST ThermoML archive (doi:10.1016/j.fluid.2016.08.002):

Assay: xn = mol fraction of the nth substance listed
Settings: Gas, Vibrating tube method

S [hydrogen sulfide] + C
Settings	mass density [kg/m3]
253.1 K, 21049 kPa, x2 = 0.714	391.7
253.1 K, 28034 kPa, x2 = 0.714	418.14
253.11 K, 20550 kPa, x2 = 0.714	389.58
253.11 K, 25528 kPa, x2 = 0.714	409.34
253.12 K, 4809 kPa, x2 = 0.8197	59.33
253.12 K, 19058 kPa, x2 = 0.714	382.7
253.12 K, 24495 kPa, x2 = 0.714	405.58
253.13 K, 5304 kPa, x2 = 0.8197	67.27
253.13 K, 17511 kPa, x2 = 0.714	374.95
253.13 K, 28568 kPa, x2 = 0.714	420
253.14 K, 16004 kPa, x2 = 0.714	366.38
253.14 K, 25004 kPa, x2 = 0.714	407.49
253.15 K, 19521 kPa, x2 = 0.714	384.91
253.15 K, 21583 kPa, x2 = 0.714	393.97
253.15 K, 22523 kPa, x2 = 0.714	397.9
253.16 K, 3517 kPa, x2 = 0.8197	38.95
253.16 K, 15038 kPa, x2 = 0.714	360.04
253.16 K, 18491 kPa, x2 = 0.714	380.05
253.16 K, 20070 kPa, x2 = 0.714	387.42
253.16 K, 29087 kPa, x2 = 0.714	421.82
253.16 K, 29450 kPa, x2 = 0.714	423.08
253.16 K, 30025 kPa, x2 = 0.714	425.02
253.17 K, 14005 kPa, x2 = 0.714	352.44
253.17 K, 22039 kPa, x2 = 0.714	395.89
253.18 K, 4507 kPa, x2 = 0.8197	52.31
253.18 K, 17054 kPa, x2 = 0.714	372.46
253.19 K, 4054 kPa, x2 = 0.8197	46.42
253.19 K, 18047 kPa, x2 = 0.714	377.75
253.21 K, 2947 kPa, x2 = 0.8197	32.5
253.21 K, 16513 kPa, x2 = 0.714	369.43
253.22 K, 15498 kPa, x2 = 0.714	363.19
253.23 K, 13535 kPa, x2 = 0.714	348.43
253.25 K, 2607 kPa, x2 = 0.8197	28.21
253.25 K, 14514 kPa, x2 = 0.714	356.43
253.27 K, 13000 kPa, x2 = 0.714	342.99
253.28 K, 188 kPa, x2 = 0.8685	1.76
253.29 K, 508 kPa, x2 = 0.8685	4.8
253.29 K, 24245 kPa, x2 = 0.8685	303.67
253.29 K, 24733 kPa, x2 = 0.8685	306.89
253.3 K, 1250 kPa, x2 = 0.8685	12.25
253.3 K, 25670 kPa, x2 = 0.8685	310.08
253.31 K, 1824 kPa, x2 = 0.8685	18.07
253.31 K, 29542 kPa, x2 = 0.8685	326.32
253.32 K, 5258 kPa, x2 = 0.8685	55.98
253.32 K, 6503 kPa, x2 = 0.8685	73.25
253.32 K, 27359 kPa, x2 = 0.8685	317.71
253.32 K, 27986 kPa, x2 = 0.8685	320.59
253.33 K, 2475 kPa, x2 = 0.8685	24.75
253.33 K, 5174 kPa, x2 = 0.8685	53.92
253.33 K, 5895 kPa, x2 = 0.8685	64.88
253.33 K, 28601 kPa, x2 = 0.8685	322.89
253.33 K, 29015 kPa, x2 = 0.8685	324.42
253.33 K, 30002 kPa, x2 = 0.8685	327.17
253.34 K, 4807 kPa, x2 = 0.8685	49.57
253.34 K, 6994 kPa, x2 = 0.8685	80.75
253.35 K, 3335 kPa, x2 = 0.8685	33.57
253.35 K, 7572 kPa, x2 = 0.8685	90
253.35 K, 7961 kPa, x2 = 0.8685	99.59
253.36 K, 4114 kPa, x2 = 0.8685	41.57
253.36 K, 7255 kPa, x2 = 0.8685	84.54
253.36 K, 8383 kPa, x2 = 0.8685	108.5
253.37 K, 8539 kPa, x2 = 0.8685	112.16
253.38 K, 4487 kPa, x2 = 0.8685	45.79
253.38 K, 8660 kPa, x2 = 0.8685	115.11
253.38 K, 8850 kPa, x2 = 0.8685	119.77
253.39 K, 9030 kPa, x2 = 0.8685	124.2
